Reference: patent publication US8362071B2, “Antiadhesion agents” (The Ohio State University Research Foundation, priority 2009, dated 2013)
Entries after “also recorded” stand apart in the source; their conditions may differ. Where two headings read alike, the source gives them in different places.

Experiments:
[1] = system: 4T1 metastatic breast cancer cells; experiment: Adhesion assay: 4T1 cell adhesion to a Matrigel-coated surface; assay type: cell-based, mouse; conditions: for anti-adhesion potency (in words) / anti-adhesion activity relative to VES (FIG. 2A, in words): 4T1 cells, Matrigel-coated surface; for anti-adhesion activity relative to VES (FIG. 2A, in words): each at 5 μM
Protocol: Adhesion Assay. Ninety six-well plates were coated with 12% (v/v) Matrigel (BD Biosciences) at 37° C. for 1 hour, washed twice with washing buffer (0.1% BSA-containing RPMI medium) followed by blocking with 0.5% BSA-containing RPMI medium at 37° C. for 60 minutes. 4T1 cells were treated with individual derivatives at the indicated concentrations at 37° C. in a CO2 incubator for 60 minutes, and 2×10^4 cells in 100 μl were seeded in each well. Cells were allowed to adhere to the Matrigel-coated surface for 30 min at 37° C., and nonadherent cells were removed by gentle washing with the aforementioned washing buffer. Adherent cells were fixed with 10% formalin, stained with 0.5% crystal violet, and dissolved in 2% SDS. Absorbance at 570 nm was measured in an ELISA plate reader (Molecular device, Sunnyvale, Calif.).

[2] = system: 4T1 cells; experiment: Transwell (Boyden chamber) migration assay, serum-induced; assay type: cell-based, mouse; conditions: FIG. 3A
Protocol: Migration Assay. 4T1 cells were trypsinized for 5 min, washed, and suspended in 0.2% FBS-supplemented RPMI 1640 medium. Five×10^4 cells in 0.5 ml of 0.2% FBS-supplemented RPMI medium containing individual test agents at the indicated concentrations were added to the upper chamber (i.e., insert) of each Transwell system (12 mm, polycarbonate, 12-μm pore, Millipore) in a 24-well plate, and incubated at 37° C. in a CO2 incubator for 30 min. The inserts were then switched to a new well containing 10% FBS-supplemented RPMI 1640 medium for 24 h. All cells in each well were fixed with 10% formalin followed by staining with 0.5% crystal violet. To quantify migrated cells, cells attached to the bottom side of the upper chamber and in the bottom of the well were wiped with a moistened cotton swab, which was then rinsed with 80 μl DDW. The cells were then dissolved by the addition of 320 μl 100% methanol. Enumeration of non-migrated cells was done by placing the chamber into 400 μl of 80% methanol, and incubating for 30 min in an orbital shaker. Absorbance at 570 nm was measured in an ELISA plate reader. Percentage of cell migration in each well was calculated using the following equation: % of migration=100×[(O.D. of migrated cells)−(O.D. of background)]/{[(O.D. of migrated cells)−(O.D. of background)]+[(O.D. of non-migrated cells)−(O.D. of background)]}. The migration activity in each treatment group is expressed as a percentage of that in the vehicle controls, which was considered to be 100%.

[3] = system: focal adhesion kinase (FAK); experiment: FAK protein stability by Western blotting; assay type: cell-based, mouse; conditions: each at 5 μM, 4T1 cells, 1 h
Protocol: (§1) VES derivatives target focal adhesion kinase (FAK) degradation. Considering the important role of FAK in regulating the formation of focal adhesions and actin stress fibers (McLean et al., Nat Rev Cancer 5, 505-15 (2005)), the effect of compound 2 on focal adhesion sites in 4T1 cells was assessed by immunostaining with anti-FAK antibodies, the results of which are shown in FIG. 4A. […] It is noteworthy that the disruption of actin stress fibers and focal adhesion by compound 2 is reminiscent of that induced by mannitol in neuroblastoma cells. Kim et al. J Biol Chem 277, 27393-400 (2002). As mannitol-induced cytoskeletal changes were preceded by the degradation of FAK, the effects of compound 2 relative to VES, TS-1, and compounds 1 and 3, each at 5 μM, on FAK protein stability in 4T1 cells was investigated by Western blotting.

[4] = system: breast tumor; conditions: animal models; Hahn et al. 2006; cited from earlier work
[5] = system: 4T1 cells; experiment: F-actin immunostaining (actin cytoskeletal structure); assay type: cell-based, mouse; conditions: for reduction in the fluorescent intensity of F-actin relative to the DMSO control: 4 h, 4T1 cells; for effect on actin cytoskeleton (stress fibers, lamellipodia; in words): 4 hours of exposure, FIG. 3B
Protocol: F-actin Immunostaining To assess the effect of test compounds on actin cytoskeletal structures, cells were seeded onto coverslips in six-well plates and incubated overnight, followed by exposure to individual agents at the indicated concentrations for 4 h in 2% FBS-containing RPMI 1640 medium. Cells were then fixed in 3.7% formaldehyde, permeabilized with PBS containing 0.1% Triton X-100 and 0.1% BSA for 1 h, and then incubated with Alexa Fluor 488 phallotoxin staining solution (Molecular Probes, Inc., Eugene, Oreg.) for 30 min. Nuclear counterstaining was achieved by use of 4,6-diamidino-2-phenylindole (DAPI)-containing mounting medium. Immunocytochemically labeled cells were visualized and images captured using a Zeiss microscope (LSM510) with Argon and HeNe lasers, appropriate filters (excitation wavelengths were 488 nm and 543 nm), and a 63×1.4 numerical aperture water immersion lens. Differences in fluorescence intensity were calculated from comparisons of the control sample with each of the treatment samples under the same threshold using MacBiophotonic ImageJ software (National Institutes of Health) and were expressed as percentages of the fluorescent intensity of the untreated control. Statistical significance was evaluated using Student's t-test and considered significant at P<0.05.

[6] = system: focal adhesion kinase (FAK); experiment: Focal adhesion sites by immunostaining with anti-FAK antibody; assay type: cell-based, mouse; conditions: 2.5 μM, 1 h, 4T1 cells
Protocol: as §1

[7] = Mus musculus, 4T1, adhesion to Matrigel-coated surface, FIG. 2B, read-out: IC50, inhibiting 4T1 cell adhesion

IC50 [1, 7]	SMILES	anti-adhesion potency (in words) [1]	inhibition of serum-induced 4T1 cell migration (in words) ([2]; 5 μM)	FAK degradation (in words) [3]	other results
	Cc1c(C)c2c(c(C)c1OC(=O)CCC(=O)O)CCC(C)(CCCC(C)CCCC(C)C)O2 (stereo not shown) [TS-1]	substantially improved potency vis-à-vis VES	little effect	less evident or not appreciable	IC50 ([1]; adhesion to Matrigel-coated surface, FIG. 2B, read-out: IC50, inhibiting 4T1 cell adhesion): 2500 nM; anti-adhesion activity relative to VES (FIG. 2A, in words) [1]: significantly improved potencies
	Cc1c(C)c2c(c(C)c1OCC(=O)O)CCC(C)(CCCC(C)CCCC(C)CCCC(C)C)O2 (stereo not drawn) [α-tocopheryloxyacetic acid]				effect on breast tumor growth and lung metastasis (in words) [4]: suppress breast tumor growth and to reduce lung metastasis
	Cc1c(C)c2c(c(C)c1OC(=O)CCC(=O)O)CCC(C)(CCCC(C)C)O2 (stereo not shown) [TS-2]	substantially improved potency vis-à-vis VES			anti-adhesion activity relative to VES (FIG. 2A, in words) [1]: to a lesser extent
	Cc1c(C)c2c(c(C)c1OC(=O)CCC(=O)O)CC[C@@](C)(CCC[C@H](C)CCC[C@H](C)CCCC(C)C)O2 [VES, α-tocopheryl succinate, reference compound]	modest inhibitory effect		less evident or not appreciable	inhibition of serum-induced 4T1 cell migration (in words) ([2]; 50 μM): little effect
1300 nM	Cc1c(C)c2c(c(C)c1OC(=O)CCC(=O)O)CCC(C)(C=CCC(C)CCCC(C)C)O2 (stereo not shown) [compound 1, Succinic acid mono-[2-(4,8-dimethyl-non-1-enyl)-2,5,7,8-tetramethyl-chroman-6-yl]ester]	multifold improvement in the anti-adhesion potency	effective in inhibiting cell migration		
2000 nM	Cc1c(C)c2c(c(C)c1OCC(=O)O)CCC(C)(CCCC(C)CCCC(C)C)O2 (stereo not shown) [compound 3, [2-(4,8-Dimethyl-nonyl)-2,5,7,8-tetramethyl-chroman-6-yloxy]-acetic acid]		effective in inhibiting cell migration		reduction in the fluorescent intensity of F-actin relative to the DMSO control ([5]; 10 μM): 70%; effect on actin cytoskeleton (stress fibers, lamellipodia; in words) ([5]; 10 μM): rapid dissolution of stress fiber and impairment of lamellipodia formation
600 nM	Cc1c(C)c2c(c(C)c1OCC(=O)O)CCC(C)(C=CCC(C)CCCC(C)C)O2 (stereo not shown) [compound 2, [2-(4,8-Dimethyl-non-1-enyl)-2,5,7,8-tetramethyl-chroman-6-yloxy]-acetic acid]		effective in inhibiting cell migration	induced FAK degradation	IC50 ([1]; Mus musculus, 4T1, summary statement b23, read-out: IC50, blocking the adhesion of 4T1 metastatic breast cancer cells): 600 nM; reduction in the fluorescent intensity of F-actin relative to the DMSO control ([5]; 5 μM): 84%; effect on actin cytoskeleton (stress fibers, lamellipodia; in words) ([5]; 5 μM): rapid dissolution of stress fiber and impairment of lamellipodia formation; effect on focal adhesion sites (FAK punctate staining; in words) [6]: loss of focal adhesion sites; also recorded: no longer detectable
